From PubChem BioAssay AID1745844 (Carcinogenic Potency Database (CPDB), 2022)
Calls of active or inactive are those of the source. The rule behind the calls is not given here.

System: rodent lifetime carcinogenesis bioassay, tumor incidence TD50
Experiment: chronic cancer bioassays in animals – CPDB, compiled studies (AID 1745844)

## O=C(Nc1ccc2c(c1)Cc1ccccc1-2)C(F)(F)F
rat, strain Buffalo, females, in feed, site: ear duct, lesion: squamous-cell carcinoma, dosed 53 weeks, study length 54 weeks
  TD50: 4.94 mg/kg/day
rat, strain Buffalo, females, in feed, site: liver, lesion: hepatoma, dosed 53 weeks, study length 54 weeks
  TD50: 1.9 mg/kg/day
rat, strain Buffalo, females, in feed, site: mammary gland, lesion: adenocarcinoma, dosed 53 weeks, study length 54 weeks
  TD50: 1.62 mg/kg/day

## Nc1cc(Cl)c(-c2cc(Cl)c(N)cc2Cl)cc1Cl
mouse, strain dd, females, in feed, site: all sites, lesion: malignant lymphoma, dosed 104 weeks, study length 104 weeks
  TD50: 109 mg/kg/day
mouse, strain dd, females, in feed, site: any site (literature study), lesion: malignant tumor, dosed 104 weeks, study length 104 weeks
  TD50: 87.2 mg/kg/day
rat, strain Wistar, females, in feed, site: liver, lesion: hepatoma, dosed 104 weeks, study length 104 weeks
  TD50: 735 mg/kg/day
rat, strain Wistar, females, in feed, site: urinary bladder, lesion: transitional-cell carcinoma, dosed 104 weeks, study length 104 weeks
  TD50: 2310 mg/kg/day
rat, strain Wistar, males, in feed, site: urinary bladder, lesion: transitional-cell carcinoma, dosed 104 weeks, study length 104 weeks
  TD50: 561 mg/kg/day

## CCN(CC)C(=O)Nc1ccc(OCC(O)CNC(C)(C)C)c(C(C)=O)c1 (stereo not drawn)
mouse, strain Charles River CD1, females, in feed, site: lung, lesion: several types, types named in the paper, dosed 104 weeks, study length 104 weeks
  TD50: 8020 mg/kg/day (inactive)
mouse, strain Charles River CD1, males, in feed, site: lung, lesion: several types, types named in the paper, dosed 104 weeks, study length 104 weeks
  TD50: 4710 mg/kg/day (inactive)
rat, strain Sprague-Dawley, females, in feed, site: any site (literature study), lesion: several types, types named in the paper, dosed 104 weeks, study length 104 weeks
  TD50: 2480 mg/kg/day (inactive)
rat, strain Sprague-Dawley, females, in feed, site: liver, lesion: hepatocellular adenoma, dosed 104 weeks, study length 104 weeks
  TD50: 38100 mg/kg/day (inactive)
rat, strain Sprague-Dawley, females, in feed, site: liver, lesion: hepatocellular carcinoma, dosed 104 weeks, study length 104 weeks
  TD50: 38100 mg/kg/day (inactive)
rat, strain Sprague-Dawley, males, in feed, site: any site (literature study), lesion: several types, types named in the paper, dosed 104 weeks, study length 104 weeks
  TD50: 684 mg/kg/day (inactive)
rat, strain Sprague-Dawley, males, in feed, site: liver, lesion: hepatocellular adenoma, dosed 104 weeks, study length 104 weeks
  TD50: 12400 mg/kg/day (inactive)
rat, strain Sprague-Dawley, males, in feed, site: liver, lesion: hepatocellular carcinoma, dosed 104 weeks, study length 104 weeks
  carcinogen call: negative (inactive)

## ClC(Cl)=C(Cl)C(Cl)=C(Cl)Cl
rat, strain Sprague-Dawley Spartan, females, in feed, site: any site (literature study), lesion: several types, types named in the paper, dosed 104 weeks, study length 104 weeks
  TD50: 9.84 mg/kg/day
rat, strain Sprague-Dawley Spartan, females, in feed, site: kidney, lesion: several types, types named in the paper, dosed 104 weeks, study length 104 weeks
  TD50: 94.4 mg/kg/day
rat, strain Sprague-Dawley Spartan, females, in feed, site: liver, lesion: hepatocellular tumor, malignant, dosed 104 weeks, study length 104 weeks
  carcinogen call: negative (inactive)
rat, strain Sprague-Dawley Spartan, males, in feed, site: kidney, lesion: several types, types named in the paper, dosed 95 weeks, study length 95 weeks
  TD50: 50.5 mg/kg/day
rat, strain Sprague-Dawley Spartan, males, in feed, site: liver, lesion: hepatocellular carcinoma, dosed 95 weeks, study length 95 weeks
  carcinogen call: negative (inactive)

## C/C(=C(\CCOC(=O)c1ccccc1)SC(=O)c1ccccc1)N(C=O)Cc1cnc(C)nc1N
rat, strain Sprague-Dawley, females, in feed, site: any site (literature study), lesion: malignant tumor, dosed 105 weeks, study length 105 weeks
  TD50: 14300 mg/kg/day (inactive)
rat, strain Sprague-Dawley, females, in feed, site: any site (literature study), lesion: several types, types named in the paper, dosed 105 weeks, study length 105 weeks
  carcinogen call: negative (inactive)
rat, strain Sprague-Dawley, females, in feed, site: liver, lesion: hemangiosarcoma anaplastic, dosed 105 weeks, study length 105 weeks
  carcinogen call: negative (inactive)
rat, strain Sprague-Dawley, males, in feed, site: any site (literature study), lesion: malignant tumor, dosed 105 weeks, study length 105 weeks
  TD50: 2340 mg/kg/day (inactive)
rat, strain Sprague-Dawley, males, in feed, site: any site (literature study), lesion: several types, types named in the paper, dosed 105 weeks, study length 105 weeks
  carcinogen call: negative (inactive)
rat, strain Sprague-Dawley, males, in feed, site: liver, lesion: liver-cell tumor, benign, dosed 105 weeks, study length 105 weeks
  TD50: 6980 mg/kg/day (inactive)
rat, strain Sprague-Dawley, males, in feed, site: liver, lesion: liver-cell tumor, malignant, dosed 105 weeks, study length 105 weeks
  TD50: 6770 mg/kg/day (inactive)

## CCCCCCCC(=O)OCC(COC(=O)CCCCCCC)OC(=O)CCCCCCC
rat, strain Fischer 344, males, by gavage, site: any site (literature study), lesion: several types, types named in the paper, dosed 104 weeks, study length 104 weeks
  TD50: 69900 mg/kg/day
rat, strain Fischer 344, males, by gavage, site: forestomach, lesion: squamous-cell papilloma, dosed 104 weeks, study length 104 weeks
  TD50: 15700 mg/kg/day
rat, strain Fischer 344, males, by gavage, site: liver, lesion: hepatocellular adenoma + hepatoblastoma + hepatocellular carcinoma, dosed 104 weeks, study length 104 weeks
  TD50: 37100 mg/kg/day
rat, strain Fischer 344, males, by gavage, site: liver, lesion: hepatocellular adenoma, dosed 104 weeks, study length 104 weeks
  TD50: 37100 mg/kg/day
rat, strain Fischer 344, males, by gavage, site: pancreas, lesion: acinar-cell adenoma, dosed 104 weeks, study length 104 weeks
  TD50: 5490 mg/kg/day (inactive)
